Measured values reported in ChEMBL document CHEMBL1949584, “Design and synthesis of novel inhibitors of human kynurenine aminotransferase-I” (Bioorg Med Chem Lett, 2012).

What follows are compounds tested against T1, Kynurenine--oxoglutarate transaminase 1 (Homo sapiens, UniProt Q16773) (assay: Inhibition of human recombinant KAT1 after 20 mins by RP-HPLC analysis).
T1 sequence (Q16773 whole entry): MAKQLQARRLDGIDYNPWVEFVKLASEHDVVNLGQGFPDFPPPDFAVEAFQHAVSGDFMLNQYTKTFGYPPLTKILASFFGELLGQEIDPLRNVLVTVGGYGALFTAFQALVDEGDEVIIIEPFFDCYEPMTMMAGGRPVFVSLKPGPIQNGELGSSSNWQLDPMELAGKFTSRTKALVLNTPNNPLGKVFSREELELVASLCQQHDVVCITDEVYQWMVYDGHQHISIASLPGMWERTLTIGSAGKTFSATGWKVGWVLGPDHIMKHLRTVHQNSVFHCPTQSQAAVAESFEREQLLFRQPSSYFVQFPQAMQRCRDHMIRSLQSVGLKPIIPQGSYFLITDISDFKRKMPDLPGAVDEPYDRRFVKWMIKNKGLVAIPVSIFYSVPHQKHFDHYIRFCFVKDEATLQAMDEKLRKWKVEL
COc1ccc2[nH]c(C(=O)O)c(CCC(=O)O)c2c1 gave an IC50 of over 6000 µM. Compound CCOC(=O)/C(CCCC(=O)O)=N\Nc1ccc([N+](=O)[O-])cc1 has an IC50 of 179 µM. CCOC(=O)/C(CCCC(=O)O)=N\Nc1ccc(Cl)cc1 gave an IC50 of 20 µM. For CCOC(=O)/C(CCCC(=O)O)=N\Nc1cccc(Cl)c1, the IC50 was 20 µM. CCOC(=O)/C(CCCC(=O)O)=N\Nc1ccc(C)cc1 was tested, and the IC50 was 33 µM. O=C(O)CCc1c(C(=O)O)[nH]c2ccc([N+](=O)[O-])cc12 showed an IC50 of 666 µM. Work on CCOC(=O)/C(CCCC(=O)O)=N\Nc1ccc(Br)cc1 yielded an IC50 of 21 µM. For O=C(O)CCc1c(C(=O)O)[nH]c2ccc(Cl)cc12, the IC50 was 293 µM. In the case of CCOC(=O)/C(CCCC(=O)O)=N\Nc1ccc(OC)cc1, the IC50 is reported as 43 µM. In the case of O=C(O)CCc1c(C(=O)O)[nH]c2ccc(Br)cc12, the IC50 is reported as 271 µM. In the case of Cc1ccc2[nH]c(C(=O)O)c(CCC(=O)O)c2c1, the IC50 is reported as over 1000 µM. CCOC(=O)/C(CCCC(=O)O)=N\Nc1ccc(I)cc1 was tested, and the IC50 was 34 µM.

Each compound was assayed against T2, Kynurenine--oxoglutarate transaminase 1 (Homo sapiens) (UniProt Q16773) (assay: Ratio of compound IC50 to indole-3-propionic acid IC50 for human recombinant KAT1).
T2 sequence (whole entry): T1 sequence (Q16773 whole entry)
Compound CCOC(=O)/C(CCCC(=O)O)=N\Nc1ccc(Cl)cc1 has a Ratio IC50 of 7. For CCOC(=O)/C(CCCC(=O)O)=N\Nc1cccc(Cl)c1, the Ratio IC50 was 7.
